Measurements taken from patent US11866443B2, “Method for separating optically active hydroxy cineole derivatives” (BASF Agro B.V., priority 2017, dated 2024).
Values after ≈ are worked out from the molar mass of the structure shown.

Assay: Solubility of racemic and enantiopure hydroxy cineol in different solvents at room temperature
Conditions: for Solubility: room temperature
Protocol: The solubility of racemic hydroxy cineol and enantiopure hydroxy cineol was checked at room temperature in solvents namely, petroleum ether, n-pentane, n-hexane, n-heptane, iso-octane, cyclohexane and toluene.
The solubility at room temperature was determined by adding under stirring small portions of the substance to 5 mL of solvent until it reached saturation and formation of a no more soluble sediment was observed.

Structure (SMILES): CC(C)C12CCC(C)(O1)C(O)C2 (racemic) [Racemate, hydroxy cineol]
- Solubility (cyclohexane): 380 mg/mL (≈ 2230 mM)
- Solubility (iso-octane): 75 mg/mL (≈ 441 mM)
- solubility of racemate relative to the optical pure hydroxy-cineol (n-heptane): 8 fold
- Solubility (n-heptane): 80 mg/mL (≈ 470 mM)
- Solubility (n-hexane): 100 mg/mL (≈ 587 mM)
- Solubility (n-pentane): 150 mg/mL (≈ 881 mM)
- solubility of racemic compound compared with optical pure material (non-polar solvents): much better soluble
- Solubility (petroleum ether): 120 mg/mL (≈ 705 mM)
- Solubility (toluene): 800 mg/mL (≈ 4700 mM)
